Results as given in ChEMBL document CHEMBL1153306, “Relation between lipophilicity of alkyl gallates and antifungal activity against yeasts and filamentous fungi” (Bioorg Med Chem Lett, 2009).
Converted amounts (≈) assume the structure as drawn.

Tests used:
Format in all cases: functional
Aspergillus flavus = assay: Antimicrobial activity against Aspergillus flavus after 48 hrs by broth microdilution technique
Saccharomyces cerevisiae = assay: Antifungal activity against Saccharomyces cerevisiae after 48 hrs by broth microdilution technique
Candida albicans = assay: Antifungal activity against Candida albicans after 48 hrs by broth microdilution technique
Aspergillus niger = assay: Antimicrobial activity against Aspergillus niger after 48 hrs by broth microdilution technique
Candida tropicalis = assay: Antifungal activity against Candida tropicalis after 48 hrs by broth microdilution technique
Aspergillus fumigatus = assay: Antimicrobial activity against Aspergillus fumigatus after 48 hrs by broth microdilution technique
Cryptococcus neoformans = assay: Antifungal activity against Cryptococcus neoformans after 48 hrs by broth microdilution technique
Nannizzia gypsea = assay: Antimicrobial activity against Microsporum gypseum after 48 hrs by broth microdilution technique
Trichophyton rubrum = assay: Antimicrobial activity against Trichophyton rubrum after 48 hrs by broth microdilution technique
[1] = system: Trichophyton mentagrophytes; assay: Antimicrobial activity against Trichophyton mentagrophytes after 48 hrs by broth microdilution technique
Epidermophyton floccosum = assay: Antimicrobial activity against Epidermophyton floccosum after 48 hrs by broth microdilution technique

| SMILES | MIC (Aspergillus flavus) | MIC (Saccharomyces cerevisiae) | MIC (Candida albicans) | MIC (Aspergillus niger) | MIC (Candida tropicalis) | MIC (Aspergillus fumigatus) | MIC (Cryptococcus neoformans) | MIC (Nannizzia gypsea) | MIC (Trichophyton rubrum) | MIC [1] | MIC (Epidermophyton floccosum) |
| --- | --- | --- | --- | --- | --- | --- | --- | --- | --- | --- | --- |
| CC(=O)N1CCN(c2ccc(OCC3COC(Cn4ccnc4)(c4ccc(Cl)cc4Cl)O3)cc2)CC1 (configuration not stated) [KETOCONAZOLE] | 0.78 µg/mL (≈ 1.47 µM) | 3.12 µg/mL (≈ 5.87 µM) | 1.56 µg/mL (≈ 2.94 µM) | 1.56 µg/mL (≈ 2.94 µM) | 0.125 µg/mL (≈ 0.235 µM) | 0.78 µg/mL (≈ 1.47 µM) | 0.39 µg/mL (≈ 0.734 µM) | – | – | – | – |
| CCCCCCCCCCCCCCCCOC(=O)c1cc(O)c(O)c(O)c1 [HEXADECYL GALLATE] | > 250 µg/mL | > 250 µg/mL | > 250 µg/mL | > 250 µg/mL | > 250 µg/mL | > 250 µg/mL | > 250 µg/mL | 250 µg/mL (≈ 634 µM) | 250 µg/mL (≈ 634 µM) | 125 µg/mL (≈ 317 µM) | – |
| CCOC(=O)c1cc(OC)c(OC)c(OC)c1 [ETHYLTRIMETHOXY BENZOATE] | > 250 µg/mL | > 250 µg/mL | > 250 µg/mL | > 250 µg/mL | > 250 µg/mL | > 250 µg/mL | > 250 µg/mL | > 250 µg/mL | > 250 µg/mL | > 250 µg/mL | > 250 µg/mL |
| CC(=O)Oc1cc(C(=O)O)cc(OC(C)=O)c1OC(C)=O [3,4,5-TRIACETOXYBENZOIC ACID] | > 250 µg/mL | > 250 µg/mL | > 250 µg/mL | > 250 µg/mL | > 250 µg/mL | > 250 µg/mL | > 250 µg/mL | > 250 µg/mL | > 250 µg/mL | > 250 µg/mL | > 250 µg/mL |
| COC(=O)c1cc(O)c(O)c(O)c1 [GALLIC ACID METHYL ESTER] | > 250 µg/mL | > 250 µg/mL | > 250 µg/mL | > 250 µg/mL | > 250 µg/mL | > 250 µg/mL | > 250 µg/mL | 100 µg/mL (≈ 543 µM) | 100 µg/mL (≈ 543 µM) | 100 µg/mL (≈ 543 µM) | 100 µg/mL (≈ 543 µM) |
| CCCCCCCCCCCCOC(=O)c1cc(O)c(O)c(O)c1 [DODECYL GALLATE] | > 250 µg/mL | > 250 µg/mL | > 250 µg/mL | > 250 µg/mL | > 250 µg/mL | > 250 µg/mL | > 250 µg/mL | 100 µg/mL (≈ 295 µM) | 50 µg/mL (≈ 148 µM) | 50 µg/mL (≈ 148 µM) | – |
| C[C@@H]1[C@H](O)[C@@H](C)/C=C/C=C/C=C/C=C/C=C/C=C/C=C/[C@H](O[C@@H]2O[C@H](C)[C@@H](O)[C@H](N)[C@@H]2O)C[C@@H]2O[C@](O)(C[C@@H](O)C[C@@H](O)[C@H](O)CC[C@@H](O)C[C@@H](O)CC(=O)O[C@H]1C)C[C@H](O)[C@H]2C(=O)O [AMPHOTERICIN B] | 0.5 µg/mL (≈ 0.541 µM) | 0.5 µg/mL (≈ 0.541 µM) | 0.78 µg/mL (≈ 0.844 µM) | 0.5 µg/mL (≈ 0.541 µM) | 0.5 µg/mL (≈ 0.541 µM) | 0.5 µg/mL (≈ 0.541 µM) | 0.25 µg/mL (≈ 0.271 µM) | – | – | – | – |
| COc1cc(C(=O)O)cc(OC)c1OC [3,4,5-TRIMETHOXYBENZOIC ACID] | > 250 µg/mL | > 250 µg/mL | > 250 µg/mL | > 250 µg/mL | > 250 µg/mL | > 250 µg/mL | > 250 µg/mL | > 250 µg/mL | > 250 µg/mL | > 250 µg/mL | > 250 µg/mL |
| CCCOC(=O)c1cc(O)c(O)c(O)c1 [PROPYL GALLATE] | > 250 µg/mL | > 250 µg/mL | > 250 µg/mL | > 250 µg/mL | > 250 µg/mL | > 250 µg/mL | > 250 µg/mL | 75 µg/mL (≈ 353 µM) | 50 µg/mL (≈ 236 µM) | 100 µg/mL (≈ 471 µM) | 100 µg/mL (≈ 471 µM) |
| CCCCCCCCCCCCCCOC(=O)c1cc(O)c(O)c(O)c1 [TETRADECYL GALLATE] | > 250 µg/mL | > 250 µg/mL | > 250 µg/mL | > 250 µg/mL | > 250 µg/mL | > 250 µg/mL | 250 µg/mL (≈ 682 µM) | 100 µg/mL (≈ 273 µM) | 50 µg/mL (≈ 136 µM) | 50 µg/mL (≈ 136 µM) | > 250 µg/mL |
| CCCCCCCCCCCOC(=O)c1cc(O)c(O)c(O)c1 [UNDECYL GALLATE] | > 250 µg/mL | 200 µg/mL (≈ 616 µM) | 250 µg/mL (≈ 771 µM) | > 250 µg/mL | 200 µg/mL (≈ 616 µM) | > 250 µg/mL | 100 µg/mL (≈ 308 µM) | 125 µg/mL (≈ 385 µM) | 125 µg/mL (≈ 385 µM) | 100 µg/mL (≈ 308 µM) | – |
| CCOC(=O)c1cc(O)c(O)c(O)c1 [ETHYLGALLATE] | > 250 µg/mL | > 250 µg/mL | > 250 µg/mL | > 250 µg/mL | > 250 µg/mL | > 250 µg/mL | > 250 µg/mL | 100 µg/mL (≈ 505 µM) | 100 µg/mL (≈ 505 µM) | 100 µg/mL (≈ 505 µM) | 100 µg/mL (≈ 505 µM) |
| CCCCCCCCCCCCCCCCCCOC(=O)c1cc(O)c(O)c(O)c1 [OCTADECYL GALLATE] | > 250 µg/mL | > 250 µg/mL | > 250 µg/mL | > 250 µg/mL | > 250 µg/mL | > 250 µg/mL | > 250 µg/mL | > 250 µg/mL | 250 µg/mL (≈ 592 µM) | > 250 µg/mL | 250 µg/mL (≈ 592 µM) |

More lines, in order of falling MIC (Nannizzia gypsea), values ahead:

| MIC (Aspergillus flavus) | MIC (Saccharomyces cerevisiae) | MIC (Candida albicans) | MIC (Aspergillus niger) | MIC (Candida tropicalis) | MIC (Aspergillus fumigatus) | MIC (Cryptococcus neoformans) | MIC (Nannizzia gypsea) | MIC (Trichophyton rubrum) | MIC [1] | MIC (Epidermophyton floccosum) | SMILES |
| --- | --- | --- | --- | --- | --- | --- | --- | --- | --- | --- | --- |
| > 250 µg/mL | 100 µg/mL (≈ 793 µM) | 100 µg/mL (≈ 793 µM) | > 250 µg/mL | 100 µg/mL (≈ 793 µM) | 100 µg/mL (≈ 793 µM) | 62.5 µg/mL (≈ 496 µM) | 50 µg/mL (≈ 396 µM) | 25 µg/mL (≈ 198 µM) | 50 µg/mL (≈ 396 µM) | 12.5 µg/mL (≈ 99.1 µM) | Oc1cccc(O)c1O [PYROGALLOL] |
| > 250 µg/mL | > 250 µg/mL | > 250 µg/mL | > 250 µg/mL | > 250 µg/mL | > 250 µg/mL | > 250 µg/mL | 50 µg/mL (≈ 221 µM) | 50 µg/mL (≈ 221 µM) | 100 µg/mL (≈ 442 µM) | 100 µg/mL (≈ 442 µM) | CCCCOC(=O)c1cc(O)c(O)c(O)c1 [BUTYL GALLATE] |
| > 250 µg/mL | 100 µg/mL (≈ 322 µM) | 100 µg/mL (≈ 322 µM) | > 250 µg/mL | 100 µg/mL (≈ 322 µM) | 100 µg/mL (≈ 322 µM) | 50 µg/mL (≈ 161 µM) | 50 µg/mL (≈ 161 µM) | 12.5 µg/mL (≈ 40.3 µM) | 50 µg/mL (≈ 161 µM) | 25 µg/mL (≈ 80.5 µM) | CCCCCCCCCCOC(=O)c1cc(O)c(O)c(O)c1 [DECYL GALLATE] |
| > 250 µg/mL | > 250 µg/mL | > 250 µg/mL | > 250 µg/mL | > 250 µg/mL | > 250 µg/mL | > 250 µg/mL | 50 µg/mL (≈ 208 µM) | 50 µg/mL (≈ 208 µM) | 50 µg/mL (≈ 208 µM) | 100 µg/mL (≈ 416 µM) | CCCCCOC(=O)c1cc(O)c(O)c(O)c1 [PENTYL GALLATE] |
| > 250 µg/mL | > 250 µg/mL | > 250 µg/mL | > 250 µg/mL | > 250 µg/mL | > 250 µg/mL | > 250 µg/mL | 25 µg/mL (≈ 98.3 µM) | 25 µg/mL (≈ 98.3 µM) | 25 µg/mL (≈ 98.3 µM) | 25 µg/mL (≈ 98.3 µM) | CCCCCCOC(=O)c1cc(O)c(O)c(O)c1 [HEXYL GALLATE] |
| 100 µg/mL (≈ 373 µM) | 100 µg/mL (≈ 373 µM) | 100 µg/mL (≈ 373 µM) | 100 µg/mL (≈ 373 µM) | 100 µg/mL (≈ 373 µM) | 100 µg/mL (≈ 373 µM) | 62.5 µg/mL (≈ 233 µM) | 6.25 µg/mL (≈ 23.3 µM) | 6.25 µg/mL (≈ 23.3 µM) | 12.5 µg/mL (≈ 46.6 µM) | 6.25 µg/mL (≈ 23.3 µM) | CCCCCCCOC(=O)c1cc(O)c(O)c(O)c1 [HEPTYL GALLATE] |
| – | – | – | – | – | – | – | 0.04 µg/mL (≈ 0.137 µM) | 0.01 µg/mL (≈ 0.0343 µM) | 0.04 µg/mL (≈ 0.137 µM) | 0.004 µg/mL (≈ 0.0137 µM) | CN(C/C=C/C#CC(C)(C)C)Cc1cccc2ccccc12 [TERBINAFINE] |
